# Assay results reported in US20160058705A1 (priority 2014, published 2016).
# Entries after “also recorded” stand apart in the source; their conditions may differ.
# What was measured:
# [1] = system: TAC-induced cardiac hypertrophy; experiment: Histology (Masson's trichrome) of heart sections two weeks post injury; format: in vivo, mouse; conditions: TAC mice
# Excerpt: (§1) All procedures involving animal use, housing, and surgeries were approved by the Stanford Institutional Animal Care and Use Committee (IACUC). Animal care and interventions were provided in accordance with the Laboratory Animal Welfare Act.
# (§2) For constriction of transverse thoracic aorta (DeAlmeida et al. (2010) J. Vis. Exp. April 21(38) pii:172), mice were anesthetized using an isoflurane inhalational chamber, followed by endotracheal intubation using a 22-gauge angiocatheter (Becton, Dickinson Inc., Sandy, Utah) connected to a small animal ventilator (Harvard Apparatus, Holliston, Mass.). A left thoracotomy was performed via the fourth intercostal space, the transverse aorta was identified, and a 6.0 silk suture was placed between the innominate and left carotid arteries. The suture was tightened around a 271/2 gauge blunt needle, placed parallel to the aorta (FIG. 1B) to induce a constriction of ˜0.4 mm in diameter. In sham control mice, an identical procedure was conducted, except for the constriction of the aorta.
# Histological analysis was performed following standard protocols for paraffin embedding. Mounted heart samples were stained for Masson's trichrome (TC, to label muscle fibers in red, collagen in blue, cytoplasm in pink, and nuclei in dark brown). A minimum of 4 sections per sample were used.
# [2] = system: TAC-induced cardiac hypertrophy; experiment: Echocardiography in mouse model of TAC (pressure overload-induced cardiac hypertrophy); format: in vivo; conditions: TAC mice, 300 μg/kg IP at days 1 and 7; compared with TAC controls
# Excerpt: as §1, §2
# In vivo heart function was evaluated by echocardiography at 1 day prior to surgery (baseline) and on days 1, 7, and 14 post-surgery (FIG. 1A). […] Fractional shortening (FS), LV internal diameter at end diastole (LVIDd) and systole (LVIDs), and posterior LV wall thickness at end diastole (LVPWd) were measured. […]
substance,measurement,setting,value
pyroglutamyl apelin-13 [[Pyr1]-apelin-13],size of LV and extent of cardiac fibrosis (trichrome histology),[1],remarkable inhibition of the LV growth
same,hypertrophic response / cardiac remodeling and dysfunction due to pressure overload,[2],more modest effect; also recorded: slight inhibition of cardiac remodeling and increase in FS
